Active and inactive are the calls of the source. The rule behind the calls is not given here.

The term residual activity denotes the activity still measured, relative to the control. As usually defined, the inhibition is the drop in the measured response relative to a control, in per cent. Usually IC50 stands for the point on the concentration scale where inhibition reaches its midpoint.

Series [1] concerns the target Replicase polyprotein 1ab (Severe acute respiratory syndrome coronavirus 2) (UniProt P0DTD1). The following applies: dose 5.0 µM, time 30.0 min, values are per cent of control.
A further series deals with SARS-CoV-2. As to the kind of experiment: Antiviral activity against SARS-CoV-2 B.1 infected in Green monkey VeroE6/TMPRSS2 cells assessed as viral replication inhibition at 10 uM incubated for 2 days by qRT-PCR analysis relative to control. It counts as functional, Severe acute respiratory syndrome coronavirus 2. Details: scale not given: the % may be the effect or the level left. A general note: Quantitative PCR measures a nucleic acid by following its amplification.

Series [2] has as its target Nonstructural protein 5 (Dengue virus) (UniProt V5TFZ2). The following applies: dengue virus type 3; dose 5.0 µM, time 30.0 min.
For series [3], the target named is Replicase polyprotein 1ab (Severe acute respiratory syndrome-related coronavirus) (UniProt P0C6X7). The following applies: dose 5.0 µM, time 30.0 min.
Series [4] addresses Replicase polyprotein 1ab (Severe acute respiratory syndrome coronavirus 2, UniProt P0DTD1).
Series [5] can be described thus: Cytotoxicity against Green monkey VeroE6/TMPRSS2 cells assessed as reduction in cell viability upto 10 uM by CellTiter Blue assay. The format is toxicity, cell-based. The following applies: chlorocebus sabaeus, veroe6/tmprss2, 10 µM. A general note: Alamar Blue is a resazurin reagent that responds to reducing activity.
In series [6] the target is T1, mRNA cap guanine-N(7) methyltransferase (Homo sapiens, UniProt O43148). The following applies: dose 5.0 µM, time 30.0 min.
T1 sequence (O43148 whole entry): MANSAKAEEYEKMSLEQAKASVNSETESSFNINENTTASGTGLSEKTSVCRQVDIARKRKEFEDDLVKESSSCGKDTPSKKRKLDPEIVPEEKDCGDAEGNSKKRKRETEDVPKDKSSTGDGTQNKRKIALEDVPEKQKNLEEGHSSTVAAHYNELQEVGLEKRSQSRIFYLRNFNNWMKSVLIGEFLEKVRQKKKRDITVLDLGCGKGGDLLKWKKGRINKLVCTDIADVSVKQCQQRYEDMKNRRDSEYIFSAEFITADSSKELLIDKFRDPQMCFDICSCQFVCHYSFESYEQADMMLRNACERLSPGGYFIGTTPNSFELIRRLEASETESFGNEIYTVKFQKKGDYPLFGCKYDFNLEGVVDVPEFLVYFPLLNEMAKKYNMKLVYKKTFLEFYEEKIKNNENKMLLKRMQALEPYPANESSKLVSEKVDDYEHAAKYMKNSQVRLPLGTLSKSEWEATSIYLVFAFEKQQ
The target of another series is Nonstructural protein 5 (Dengue virus, UniProt V5TFZ2). Also noted: species or system dengue virus type 3.
For series [7], the target named is Replicase polyprotein 1ab (Severe acute respiratory syndrome-related coronavirus, UniProt P0C6X7).
In series [8] the target is T1, mRNA cap guanine-N(7) methyltransferase.
The subject of series [9] is Severe acute respiratory syndrome coronavirus 2. The following applies: time 30.0 min.
[10] abbreviates: Severe acute respiratory syndrome coronavirus 2, time 2.0 day.

The compound `Cc1ccc(S(=O)(=O)N(C)C[C@H]2O[C@@H](n3cc(C#Cc4cnc5ccccc5c4)c4c(N)ncnc43)[C@H](O)[C@@H]2O)cc1[N+](=O)[O-]` had a residual activity in [1] of 4.2%. The Activity was 50% in the series on SARS-CoV-2 (time 2 day) and “Non-Toxic” in series [5]. In addition, the inhibition in [2] amounted to 96%; in series [3], 1.9%; in series [6] it was 86.7%. Further, the midpoint of inhibition in series [4], the IC50, lay at 2.1 nM.
`CN(C[C@H]1O[C@@H](n2cc(C#Cc3cnc4ccccc4c3)c3c(N)ncnc32)[C@H](O)[C@@H]1O)S(=O)(=O)c1ccc(Br)c([N+](=O)[O-])c1`: the residual activity in series [1] stood at 5.4%. For the same compound, the Activity is 50% in the series on SARS-CoV-2 (time 2 day) and “Non-Toxic” in series [5]. The inhibition result in series [2] was “inactive”. The inhibition in [3] came out at 5.5%; in series [6] it was 52.3%. In [4], this compound registered an IC50 of 3.5 nM.
On to `CCN(C[C@H]1O[C@@H](n2cnc3c(=O)[nH]cnc32)[C@H](O)[C@@H]1O)S(=O)(=O)c1ccc(OC)c(C#N)c1`, for which the residual activity in [1] amounted to 30.7%. Moreover, the values for the inhibition in series [2], in series [3] and in series [6] were 89.8%, 48.1% and 88.9%, respectively. This compound also came in with an IC50 in [4] of 4000 nM.
The compound `CCN(C[C@H]1O[C@@H](n2cnc3c(NC)ncnc32)[C@H](O)[C@@H]1O)S(=O)(=O)c1ccc(Br)c([N+](=O)[O-])c1` came in with a residual activity in series [1] of 15.2%. Further, the inhibition was 98% in series [2] and 29.5% in series [3]. In series [4], this compound registered an IC50 of 383 nM. In addition, in series [6], the inhibition entry is “inactive”.
In the same order, the values of `CNc1ncnc2c1ncn2[C@@H]1O[C@H](CNS(=O)(=O)c2ccc(OC)c([N+](=O)[O-])c2)[C@@H](O)[C@H]1O` are 31.5%, “inactive”, 41.9%, 573 nM and “inactive”.
In series [1], `Cc1ccc(S(=O)(=O)N(C)C[C@H]2O[C@@H](n3cc(C#Cc4cnc5ccccc5c4)c4c(N)ncnc43)[C@H](O)[C@@H]2O)cc1Cl` had a residual activity of 3.2%. The figures for the Activity (in the series on SARS-CoV-2 (time 2 day); in series [5]) were 50% and “Non-Toxic”, respectively. Also, the figures for the inhibition in [2], in [3] and in [6] were 97.7%, 1.5% and 90.7%, respectively. This compound came in with an IC50 in series [4] of 2.07 nM.
`CCN(C[C@H]1O[C@@H](n2cnc3c(NC)ncnc32)[C@H](O)[C@@H]1O)S(=O)(=O)c1ccc(OC)c(C#N)c1`: the IC50 result against Nonstructural protein 5 is “Not Active”; in [7] it was 51.7 nM; in series [4], 62 nM; in series [8], 16100 nM. Further, in [1], the residual activity was determined as 4.2%. Moreover, the figures for the inhibition in series [3] and in [6] were 4.3% and 55.9%, respectively.
Regarding `CCN(C[C@H]1O[C@@H](n2cnc3c(=O)[nH]cnc32)[C@H](O)[C@@H]1O)S(=O)(=O)c1ccc(Cl)c(C)c1`, in series [1], the residual activity is 75.5%. Also, the inhibition result in series [2] and in series [6] was “inactive” each time. For the same compound, the inhibition in series [3] worked out at 91%.
With `COc1ccc(S(=O)(=O)N(C)C[C@H]2O[C@@H](n3cc(C#Cc4ccccc4)c4c(N)ncnc43)[C@H](O)[C@@H]2O)cc1[N+](=O)[O-]`, in series [1], the residual activity is 0%. The outcome in the series on SARS-CoV-2 (setting [10]) was inactive. Besides, the inhibition amounted to 91.6% in [2] and 0.5% in series [3]. Besides, the IC50 in [4] stood at 2.8 nM. Further, the Activity entry in series [5] is “Non-Toxic”. Further, the inhibition entry in series [6] is “inactive”.
In [1], `COc1ccc(S(=O)(=O)NC[C@H]2O[C@@H](n3cnc4c(=O)[nH]cnc43)[C@H](O)[C@@H]2O)cc1[N+](=O)[O-]` came in with a residual activity of 93.6%. The inhibition result in series [2] and in [6] was “inactive” throughout. The compound further registered an inhibition in series [3] of 91.7%.
Consider `Cc1ccc(S(=O)(=O)N(C)C[C@H]2O[C@@H](n3cc(C#Cc4ccccc4)c4c(N)ncnc43)[C@H](O)[C@@H]2O)cc1[N+](=O)[O-]`, for which the residual activity in series [1] turned out to be 1%. The outcome in the series with SARS-CoV-2 (setting [10]) was inactive. Moreover, the inhibition worked out at 93.3% in series [2] and 1% in series [3]. Further, the IC50 in series [4] was found to be 9.5 nM. The Activity entry in series [5] is “Non-Toxic”. Further, in [6], the inhibition result is “inactive”.
Compound `CNc1ncnc2c1ncn2[C@@H]1O[C@H](CNS(=O)(=O)c2ccc(C)c([N+](=O)[O-])c2)[C@@H](O)[C@H]1O` returned a residual activity in [1] of 38.7%. The inhibition in [2] came to 76.6%; in series [3] it was 66.4%; in series [6], 66.4%. For the same compound, the IC50 in [4] amounted to 2850 nM.
For the compound `CNc1ncnc2c1ncn2[C@@H]1O[C@H](CNS(=O)(=O)c2ccc(OC)c(C#N)c2)[C@@H](O)[C@H]1O`, the IC50 entry against Nonstructural protein 5 is “Not Active”; in [7], 3990 nM; in series [4], 468 nM; in series [8] it was 56200 nM. The compound also registered a residual activity in [1] of 25.4%. In [3], this compound gave an inhibition of 45.1%. Besides, the inhibition result in series [9] and in series [6] was “inactive” throughout.
The compound `CCN(C[C@H]1O[C@@H](n2cnc3c(=O)[nH]cnc32)[C@H](O)[C@@H]1O)S(=O)(=O)c1ccc(OC)c([N+](=O)[O-])c1` gave a residual activity in [1] of 56.4%. Also, the inhibition in series [2] was determined as 86.4%; in series [3] it was 69.8%. In series [6], the inhibition entry was “inactive”.
In turn, `CCN(C[C@H]1O[C@@H](n2cnc3c(NC)ncnc32)[C@H](O)[C@@H]1O)S(=O)(=O)c1ccc(C)c(Cl)c1` returned a residual activity in [1] of 8.3%. In addition, the inhibition entry in series [2] was “inactive”. The inhibition in series [3] is 10.9%; in series [6], 78%. In addition, the IC50 in series [4] worked out at 130 nM.
The like results for `CNc1ncnc2c1ncn2[C@@H]1O[C@H](CNS(=O)(=O)c2ccc(C)c(Cl)c2)[C@@H](O)[C@H]1O` were, in that order, 45.4%, “inactive”, 53.5%, 92% and 2180 nM.
In [1], `COc1ccc(S(=O)(=O)N(C)C[C@H]2O[C@@H](n3cc(C#Cc4cnc5ccccc5c4)c4c(N)ncnc43)[C@H](O)[C@@H]2O)cc1[N+](=O)[O-]` had a residual activity of 0%. Also, the figures for the Activity (with SARS-CoV-2 (time 2 day); in [5]) were 50% and “Non-Toxic”, respectively. Further, the inhibition entry in series [2] was “inactive”. Also, the inhibition in series [3] was found to be 0.8%; in series [6], 49.9%. The compound also returned a half-inhibitory concentration (IC50) in series [4] of 1.3 nM.
In series [1], `Cc1ccc(S(=O)(=O)N(C)C[C@H]2O[C@@H](n3cc(C#Cc4ccccc4)c4c(N)ncnc43)[C@H](O)[C@@H]2O)cc1Cl` gave a residual activity of 7%. In addition, the outcome in the series with SARS-CoV-2 (setting [10]) was inactive. Moreover, the inhibition in series [2] was 94.8%; in series [3], 2.4%. Further, the IC50 in series [4] stood at 25.6 nM. Also, the Activity result in [5] is listed as “Non-Toxic”. Moreover, the inhibition entry in [6] was “inactive”.
Regarding `COc1ccc(S(=O)(=O)NC[C@H]2O[C@@H](n3cnc4c(=O)[nH]cnc43)[C@H](O)[C@@H]2O)cc1C#N`, in [1], the residual activity was found to be 86%. The inhibition entry in series [2] and in series [6] was “inactive” throughout. In addition, the inhibition in [3] is 98.4%.
In turn, `CCN(C[C@H]1O[C@@H](n2cnc3c(NC)ncnc32)[C@H](O)[C@@H]1O)S(=O)(=O)c1ccc(OC)c([N+](=O)[O-])c1` gave a residual activity in series [1] of 10.3%. Also, the figures for the inhibition in series [2], in [3] and in series [6] were 90%, 16.4% and 73.3%, respectively. In series [4], this compound registered an IC50 of 274 nM.
Compound `CNc1ncnc2c1ncn2[C@@H]1O[C@H](CNS(=O)(=O)c2ccc(Br)c([N+](=O)[O-])c2)[C@@H](O)[C@H]1O` came in with a residual activity in series [1] of 33.8%. In addition, the inhibition was determined as 78.1% in [2], 54% in [3] and 57% in series [6]. 3410 nM corresponded to half-maximal inhibition in [4] (IC50).
Compound `CCN(C[C@H]1O[C@@H](n2cnc3c(NC)ncnc32)[C@H](O)[C@@H]1O)S(=O)(=O)c1ccc(C)c([N+](=O)[O-])c1` yielded a residual activity in series [1] of 10.9%. In addition, the inhibition in series [2] amounted to 97.1%; in [3], 20.1%. For the same compound, the IC50 in series [4] came out at 187 nM. Further, the inhibition entry in series [6] is “inactive”.
Turning to `CN(C[C@H]1O[C@@H](n2cc(C#Cc3ccccc3)c3c(N)ncnc32)[C@H](O)[C@@H]1O)S(=O)(=O)c1ccc(Br)c([N+](=O)[O-])c1`, in series [1], the residual activity was 5%. Further, in the series on SARS-CoV-2 (setting [10]), the outcome was inactive. In addition, the inhibition in [2] was 96.9%; in [3], 3.3%; in series [6] it was 95.9%. The compound further came in with a concentration for half-maximal inhibition (IC50) in [4] of 17.3 nM. For the same compound, the Activity entry in series [5] is recorded as “Non-Toxic”.
As to `Cc1cc(S(=O)(=O)NC[C@H]2O[C@@H](n3cnc4c(=O)[nH]cnc43)[C@H](O)[C@@H]2O)ccc1Cl`, the residual activity in series [1] came out at 87.6%. Further, the inhibition entry in [2] and in series [6] was “inactive” throughout. Moreover, the inhibition in series [3] was found to be 71.8%.
Regarding `CCN(C[C@H]1O[C@@H](n2cnc3c(N)ncnc32)[C@H](O)[C@@H]1O)S(=O)(=O)c1ccc(OC)c(C#N)c1`, the inhibition entry in series [2] is “inactive”. Also, the results for the inhibition in series [3] and in series [6] were 4.2% and 69.5%, respectively.

The values above are taken from ChEMBL document CHEMBL5370550, “Structure-guided optimization of adenosine mimetics as selective and potent inhibitors of coronavirus nsp14 N7-methyltransferases” (Eur J Med Chem, 2023).
